One data set has as its system LIM 2537. The data set is described as follows: Cell growth inhibition assay, LIM 2537. It counts as cell-based. The note with it: Homo sapiens; LIM 2537, colon carcinoma; 72 h viability assay, CellTiterGlo; mean of 3 ± SEM; read-out: IC50 (inhibition of cellular proliferation). How it is done:
Cells were plated at a density of between 500 to 5000 cells per well for adherent cell lines depending on doubling time, and 15,000 cells per well for lymphoblastic leukemia cell lines, in a 96-well plate in 200 μl of growth media. Plates were incubated overnight at 37 °C before adding the inhibitors. Inhibitors were serially diluted from the stock solutions in complete medium and added to the cells. […] Cell viability was assessed by the AlamarBlue (Invitrogen) or CellTiterBlue/Glo (Promega) method according to manufacturer’s instructions. The curve fits and IC50 values were generated in PRISM (GraphPad, San Diego, CA).
(In general: ATP-based viability assays read luminescence as a measure of living cells.)

Another data set has as its system 24 T TNBC PDX. The data set is described as follows: TNBC PDX model 24T. The format is in vivo, NOD-SCID-IL2Rγc–/– mice. Here is the method:
Cohorts of about 30 female mice were seeded with thawed single cell suspensions of early passage human breast tumors (passage 2 or 3). Briefly, 150,000–250,000 cells were resuspended in 10 µl of transplantation buffer (50% fetal calf serum, 10% of a 0.04% trypan blue solution and 40% PBS) and growth-factor-reduced Matrigel [BD] at a ratio of 3:1, and injected into the cleared mammary fat pads of 3- or 4-week-old NOD-SCID-IL2Rγc–/– female mice. Mice were monitored for tumor development three times weekly and tumor size measured using digital Vernier calipers. Tumor volume was estimated by measuring the minimum and maximum tumor diameters using the formula: (minimum diameter)^2 x (maximum diameter)/2. Once tumors arose, mice were randomized into treatment arms. Treatment was initiated when the tumor volume reached 80–120 mm^3. Randomization and tumor measurements were managed using the Study Director software (v 3.0, studylog). Mice were sacrificed at the first measurement where tumor volume exceeded 600 mm^3, or if their health deteriorated for reasons other than disease progression or drug toxicity (censored event).
Mice were treated with either docetaxel (10 mg/kg; i.p.; once), cisplatin (4 mg/kg; i.p.; once) or WEHI-7326 (20 mg/kg; twice a week (Monday and Thursday); i.v.). Vehicle treated mice were administered with the vehicle for WEHI-7326. Docetaxel was resuspended at 2 mg/ml in PBS:Tween-80:ethanol = 90:5:5 (v/v/v). WEHI-7326 was resuspended at 2 mg/ml in saline.

Data set [1] deals with COG-N-496x neuroblastoma PDX. The data set is described as follows: High-risk neuroblastoma PDX COG-N-496x. The format is in vivo, NSG mice. The note with it: COG-N-496x PDX; 20 mg/kg i.v. twice weekly. Here is the method:
(§1) All animal studies were performed in accordance with the guidelines approved by University of New South Wales Animal Care and Ethics Committee (ACEC 17/53B) and in accordance with the requirements of the Australian Code for the Care and Use of Animals for Scientific Purposes. PDX models COG-N-440x and COG-N-496x were obtained from the Childhood Cancer Repository, Texas Tech University Health Sciences Center in Lubbock, TX, USA. 6–8 week old female NSG mice were engrafted by subcutaneous injection with 1 × 10^6 freshly thawed PDX tumor cells into one flank in a mixture of 100 μl RPMI-1640 and 100 μl Matrigel. Mice were monitored for tumor development three times weekly and tumor size measured using digital Vernier calipers. Treatments commenced when tumors reached 50 mm^3, following randomization into treatment arms. […] Mice were treated with either vincristine (0.5 mg/kg, once weekly i.p. in sterile saline for up to 5 weeks), WEHI-7326 (20 mg/kg; twice weekly i.v. in sterile saline for up to 5 weeks) or vehicle (as for WEHI-7326). For the Th-MYCN transgenic mouse model, spontaneous tumor growth in mice homozygous for the MYCN transgene was assessed by abdominal palpation at least twice a week. Treatments commenced once a small palpable tumor (~5 mm) was detected, following randomization to treatment arms. Mice were euthanized upon detection of an abdominal tumor of ~1 cm in diameter. […]

In data set [2] the test system is COG-N-440x neuroblastoma PDX. The data set is described as follows: High-risk neuroblastoma PDX COG-N-440x. The note with it: COG-N-440x PDX; 20 mg/kg i.v. twice weekly. It counts as in vivo, NSG mice. Here is the method: as §1
For data set [3], the system named is spontaneous neuroblastoma in Th-MYCN transgenic mice. The data set is described as follows: Th-MYCN transgenic mouse model of neuroblastoma. It counts as in vivo. The note with it: WEHI-7326 20 mg/kg i.v. twice weekly, standard-of-care combinations daily i.p. for 5 days. How it is done:
as §1

Regarding `COc1ccc(CNc2nc(NCc3ccc(CN)cc3)nc(NN3CC(=O)NC3=O)n2)cc1` [WEHI-7326], in the data set with LIM 2537, the IC50 is 58.9 ± 7.5 nM. Also, in the data set with 24 T TNBC PDX (24 T PDX mice, 20 mg/kg i.v. twice a week, n = 7), the “Adverse effects in treatment arm” value is 1 sick, 1 found dead, 1 with back leg paralysis. Besides, the Survival time with 24 T TNBC PDX (24 T PDX, docetaxel 10 mg/kg i.p. once, WEHI-7326 20 mg/kg i.v. biweekly) was 45 days. The Median survival in data set [1] worked out at 25 days; in data set [2], 39 days; in data set [3], 44 days.

The record behind these values is paper PMC7955127, “Preclinical small molecule WEHI-7326 overcomes drug resistance and elicits response in patient-derived xenograft models of human treatment-refractory tumors” (Cell Death & Disease, 2021).
